In general, Ki refers to the equilibrium dissociation constant of an inhibitor or competing ligand from its target. A higher Ki goes with a looser hold on the target.

For the experiment, the target named is T1, Melatonin receptor type 1B (Homo sapiens, UniProt P49286).
T1 sequence (P49286 whole entry): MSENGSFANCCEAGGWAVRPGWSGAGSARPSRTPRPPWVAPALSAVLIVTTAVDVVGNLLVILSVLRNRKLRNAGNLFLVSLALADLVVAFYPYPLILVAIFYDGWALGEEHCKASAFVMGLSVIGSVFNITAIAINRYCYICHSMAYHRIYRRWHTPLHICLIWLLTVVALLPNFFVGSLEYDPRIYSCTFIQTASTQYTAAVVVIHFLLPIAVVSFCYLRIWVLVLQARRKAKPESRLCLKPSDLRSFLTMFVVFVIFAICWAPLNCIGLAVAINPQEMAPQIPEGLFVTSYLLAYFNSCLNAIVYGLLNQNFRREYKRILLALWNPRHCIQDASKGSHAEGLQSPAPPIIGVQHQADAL
With `CC(=O)NCCc1c(Cc2ccccc2)[nH]c2ccccc12` [CAS_117946-91-5], the Ki came out at 11.2 nM.
To `COc1ccc2[nH]c(-c3ccccc3)c(CCNC(C)=O)c2c1` [Melatonin,2-Phenyl] belongs 0.03 nM; to `CC(=O)NCCc1c[nH]c2ccc(O)cc12` [N-Acetyltryptamine,5-Hydroxy], 339 nM; to `CC(=O)NCCc1c[nH]c2ccccc12` [N-Acetyltryptamine], 64.6 nM.
To `O=C(NCCc1c(-c2ccccc2)[nH]c2ccccc12)C1CCC1` [N-CBCPT] belongs 85.1 nM.

For the origin of these results see BindingDB's records for doi:10.1038/sj.bjp.0702658 (Universit&Agrove, 1999).
